Key:
[1] = pKCu, stability constant of the Cu2+ chelate by Cu ion electrode method; type: physicochemical
Procedure: The pKCu was obtained by the following procedures. A Cu ion electrode method was used (Orion pH/ion analyzer; Cu ion electrode). A 0.1M triethanolamine-HCl (pH 8) buffer solution was used.
First of all, standard copper ion buffer solutions [400, 320, 240, 160 or 80 ppm (reduced to Cu^2+)] were prepared using CuCl2.2H2O, and a calibration curve was prepared using a copper ion electrode.
Then, a sample weighing 0.1 g was dissolved in 100 ml of a buffer solution in a measuring flask. To the sample solution was added dropwise a 0.05M CuCl2.2H2O buffer solution (pH 8) from a burette in 0.6 ml portions, and the potential of the Cu ion electrode was measured. The titration was conducted until the potential exceeded the level corresponding to 400 ppm (reduced to Cu^2+). Blank measurements were also carried out. A free Cu ion concentration was calculated from the potential, and the calculated value was corrected for the change in amount of the liquid of the measurement system due to the titration. Assuming that addition of an equimolar amount of Cu to a sample produces a 1:1 (by mole) complex, pKCu can be obtained from formula 1:
Stability Constant KML=[ML]/([M][L])
[ML]: Concentration of metal/chelating agent complex
[M]: Concentration of free metal ion
[L]: Concentration of free chelating agent

[2] = Solubility of copper salt of chelating compound in physiological saline; details: stirred 30 minutes
[3] = log stability constant with Cu2+, 25° C., 0.1M triethanolamine-HCl pH 8

Compound	pKCu (25° C.) ([1]; pH 8)	pKCu (25° C.) [1, 3]	Solubility of Cu Salt (25° C.) [2]
O=C(O)CN(CCN(CC(=O)O)CC(=O)O)CC(=O)O [EDTA, ethylenediaminetetraacetic acid, reference compound]	18.79	–	–
O=P(O)(O)OP(=O)(O)OP(=O)(O)O [Sodium Tripolyphosphate, reference compound]	–	6.8	1 wt %
O=C([O-])CC(O)(CC(=O)[O-])C(=O)[O-].[Na+].[Na+].[Na+] [Trisodium Citrate, reference compound]	–	5.2	–
CC(C)c1cccc(O)c(=O)c1 [β-Thujaplicin, β-thujaplicin]	–	7.9	<0.0001 wt %
CC(C)c1ccc(O)c(=O)cc1 [γ-Thujaplicin, γ-thujaplicin]	–	7.9	–
Monooleyl Citrate	–	6.4	–
Monooleyl Phosphate	–	3.3	–

— patent US6335398B1, “Super absorbent polymer composition” (priority 1994, dated 2002)
